We go through seven compounds from patent US9868772B2 (INDIANA UNIVERSITY RESEARCH AND TECHNOLOGY CORPORATION, priority 2012, dated 2018).

What all share (assay): cAMP induction, firefly luciferase reporter assay in HEK293 cells co-transfected with receptor
Common to all, as to type: cell-based
Holding throughout (conditions): Table 1, analogs of SEQ ID NO: 37
Background: Reporter assays use an easily measured gene product as a stand-in for the process of interest.

One assay deals with T1, GLP-1 receptor (Homo sapiens, UniProt P43220).
T1 construct: expressed in transfected cells; host or cells: HEK293
T1 sequence (P43220 24-463): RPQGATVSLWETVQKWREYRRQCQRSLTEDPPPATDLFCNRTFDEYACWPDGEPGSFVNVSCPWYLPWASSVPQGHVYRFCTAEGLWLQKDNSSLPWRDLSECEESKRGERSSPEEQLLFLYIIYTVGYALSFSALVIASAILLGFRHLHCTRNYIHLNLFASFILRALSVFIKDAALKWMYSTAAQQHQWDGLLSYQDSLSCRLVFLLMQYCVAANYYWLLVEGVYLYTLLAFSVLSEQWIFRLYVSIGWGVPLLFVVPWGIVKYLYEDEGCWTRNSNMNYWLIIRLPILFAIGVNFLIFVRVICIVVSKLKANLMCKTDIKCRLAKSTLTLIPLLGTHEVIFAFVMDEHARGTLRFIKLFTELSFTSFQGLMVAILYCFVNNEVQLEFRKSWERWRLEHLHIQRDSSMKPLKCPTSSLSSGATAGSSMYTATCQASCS
As for the experimental part:
(§1) The ability of glucagon analogs to induce cAMP was measured in a firefly luciferase-based reporter assay. […] At the end of the incubation 100 microliters of LucLite luminescence substrate reagent (Perkin-Elmer, Wellesley, Mass.) were added to each well. […] Effective 50% concentrations were calculated by using Origin software (OriginLab, Northampton, Mass.

A further assay has as its target T2, glucagon receptor (Homo sapiens, UniProt P47871).
T2 construct: expressed in transfected cells; host or cells: HEK293
The protocol:
as §1

A further assay addresses T3, GIP receptor (Homo sapiens, UniProt P48546).
T3 construct: expressed in transfected cells; host or cells: HEK293
T3 sequence (P48546 22-466): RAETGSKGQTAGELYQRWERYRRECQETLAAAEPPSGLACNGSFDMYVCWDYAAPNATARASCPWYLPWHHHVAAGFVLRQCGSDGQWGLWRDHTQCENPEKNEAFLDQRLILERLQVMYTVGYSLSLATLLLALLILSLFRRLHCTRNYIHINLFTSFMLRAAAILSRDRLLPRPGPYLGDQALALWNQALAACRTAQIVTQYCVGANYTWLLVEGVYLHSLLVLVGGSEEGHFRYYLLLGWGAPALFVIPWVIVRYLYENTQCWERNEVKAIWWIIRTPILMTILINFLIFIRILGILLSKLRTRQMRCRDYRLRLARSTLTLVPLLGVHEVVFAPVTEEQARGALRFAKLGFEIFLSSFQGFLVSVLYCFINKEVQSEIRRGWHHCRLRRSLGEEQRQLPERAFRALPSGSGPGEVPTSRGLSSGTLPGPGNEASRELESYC
As for the experimental part: as §1

The structures appear in SMILES notation. pEC50: −log10 of the molar value. Numbered stars: 1 amine (or outer) side, 2 acyl side, 3 side chain; on linkers, the order of the positions; unused ones are H or OH. Square brackets hold non-standard residues; d marks the D form. Side chains are listed from the residue outwards. Peptide text beside a SMILES is read from it. * marks the point of attachment. γGlu = O=C(O)[C@H](CCC(=O)[*:2])N[*:1]; Desaminotyrosyl = O=C(CCc1ccc(O)cc1)*; Palmitoyl = CCCCCCCCCCCCCCCC(=O)*

T2 sequence (P47871 26-477): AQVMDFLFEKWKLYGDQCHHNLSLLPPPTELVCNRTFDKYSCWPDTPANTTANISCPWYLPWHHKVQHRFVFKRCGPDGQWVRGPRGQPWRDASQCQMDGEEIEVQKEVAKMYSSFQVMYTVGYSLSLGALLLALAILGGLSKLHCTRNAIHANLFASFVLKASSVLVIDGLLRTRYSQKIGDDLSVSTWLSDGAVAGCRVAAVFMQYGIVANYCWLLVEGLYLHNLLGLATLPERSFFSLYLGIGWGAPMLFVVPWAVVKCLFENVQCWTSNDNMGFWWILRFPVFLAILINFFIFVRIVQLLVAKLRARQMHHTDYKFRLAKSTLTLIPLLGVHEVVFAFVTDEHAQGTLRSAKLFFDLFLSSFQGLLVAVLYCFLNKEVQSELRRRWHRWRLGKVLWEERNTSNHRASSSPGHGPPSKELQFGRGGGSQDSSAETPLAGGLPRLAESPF

The pEC50 is the EC50 on a negative log10 scale, so that one unit is a factor of ten. A low value points to a large EC50. For the compound `CCCCCCCCCCCCCCCC(=O)N[C@@H](CCC(=O)NCCCC[C@H](NC(=O)[C@H](CC(=O)O)NC(=O)[C@H](CO)NC(=O)[C@@H](NC(=O)[C@H](Cc1ccccc1)NC(=O)[C@@H](NC(=O)CNC(=O)[C@H](CCC(N)=O)NC(=O)C(C)(C)NC(=O)[C@@H](N)Cc1c[nH]cn1)[C@@H](C)O)[C@@H](C)O)C(=O)N[C@@H](CO)C(=O)N[C@@H](CCCCN)C(=O)N[C@@H](Cc1ccc(O)cc1)C(=O)N[C@@H](CC(C)C)C(=O)N[C@@H](CC(=O)O)C(=O)N[C@@H](CCC(=O)O)C(=O)N[C@@H](CCCNC(=N)N)C(=O)N[C@@H](C)C(=O)N[C@@H](C)C(=O)N[C@@H](CCC(N)=O)C(=O)N[C@@H](CC(=O)O)C(=O)N[C@@H](Cc1ccccc1)C(=O)N[C@H](C(=O)N[C@@H](CCC(N)=O)C(=O)N[C@@H](Cc1c[nH]c2ccccc12)C(=O)N[C@@H](CC(C)C)C(=O)N[C@@H](CC(C)C)C(=O)N[C@@H](CC(=O)O)C(=O)NCC(=O)NCC(=O)N1CCC[C@H]1C(=O)N[C@@H](CO)C(=O)N[C@@H](CO)C(=O)NCC(=O)N[C@@H](C)C(=O)N1CCC[C@H]1C(=O)N1CCC[C@H]1C(=O)N1CCC[C@H]1C(=O)N[C@@H](CO)C(N)=O)C(C)C)C(=O)O` [compound 10], the pEC50 at GLP-1 receptor and on glucagon receptor was 11.30 throughout.
Take `CCCCCCCCCCCCCCCC(=O)N[C@@H](CCC(=O)NCCCC[C@H](NC(=O)[C@H](CC(=O)O)NC(=O)[C@H](CO)NC(=O)[C@@H](NC(=O)[C@H](Cc1ccccc1)NC(=O)[C@@H](NC(=O)CNC(=O)[C@H](CCC(N)=O)NC(=O)[C@H](C)NC(=O)CCc1ccc(O)cc1)[C@@H](C)O)[C@@H](C)O)C(=O)N[C@@H](CO)C(=O)N[C@@H](CCCCN)C(=O)N[C@@H](Cc1ccc(O)cc1)C(=O)N[C@@H](CC(C)C)C(=O)N[C@@H](CC(=O)O)C(=O)N[C@@H](CCC(=O)O)C(=O)N[C@@H](CCCNC(=N)N)C(=O)N[C@@H](C)C(=O)N[C@@H](C)C(=O)N[C@@H](CCC(N)=O)C(=O)N[C@@H](CC(=O)O)C(=O)N[C@@H](Cc1ccccc1)C(=O)N[C@H](C(=O)N[C@@H](CCC(N)=O)C(=O)N[C@@H](Cc1c[nH]c2ccccc12)C(=O)N[C@@H](CC(C)C)C(=O)N[C@@H](CC(C)C)C(=O)N[C@@H](CCC(=O)O)C(=O)NCC(=O)NCC(=O)N1CCC[C@H]1C(=O)N[C@@H](CO)C(=O)N[C@@H](CO)C(=O)NCC(=O)N[C@@H](C)C(=O)N1CCC[C@H]1C(=O)N1CCC[C@H]1C(=O)N1CCC[C@H]1C(=O)N[C@@H](CO)C(N)=O)C(C)C)C(=O)O` [compound 11] (Desaminotyrosyl-AQGTFTSDK([γGlu-Palmitoyl])SKYLDERAAQDFVQWLLEGGPSSGAPPPS-NH2): the results for the pEC50 on GLP-1 receptor, at GIP receptor and on glucagon receptor were 11.70, 11.70 and 10.80, respectively.
On to `CCCCCCCCCCCCCCCC(=O)N[C@@H](CCC(=O)NCCCC[C@H](NC(=O)[C@H](CC(=O)O)NC(=O)[C@H](CO)NC(=O)[C@@H](NC(=O)[C@H](Cc1ccccc1)NC(=O)[C@@H](NC(=O)CNC(=O)[C@H](CCC(N)=O)NC(=O)[C@H](C)NC(=O)[C@@H](Cc1ccc(O)cc1)NC(C)=O)[C@@H](C)O)[C@@H](C)O)C(=O)N[C@@H](CO)C(=O)N[C@@H](CCCCN)C(=O)N[C@@H](Cc1ccc(O)cc1)C(=O)N[C@@H](CC(C)C)C(=O)N[C@@H](CC(=O)O)C(=O)N[C@@H](CCC(=O)O)C(=O)N[C@@H](CCCNC(=N)N)C(=O)N[C@@H](C)C(=O)N[C@@H](C)C(=O)N[C@@H](CCC(N)=O)C(=O)N[C@@H](CC(=O)O)C(=O)N[C@@H](Cc1ccccc1)C(=O)N[C@H](C(=O)N[C@@H](CCC(N)=O)C(=O)N[C@@H](Cc1c[nH]c2ccccc12)C(=O)N[C@@H](CC(C)C)C(=O)N[C@@H](CC(C)C)C(=O)N[C@@H](CCC(=O)O)C(=O)NCC(=O)NCC(=O)N1CCC[C@H]1C(=O)N[C@@H](CO)C(=O)N[C@@H](CO)C(=O)NCC(=O)N[C@@H](C)C(=O)N1CCC[C@H]1C(=O)N1CCC[C@H]1C(=O)N1CCC[C@H]1C(=O)N[C@@H](CO)C(N)=O)C(C)C)C(=O)O` [compound 12], for which the pEC50 at GLP-1 receptor is 11.52; on GIP receptor it was 11.70; at glucagon receptor, 11.15.
The like results for `CCCCCCCCCCCCCCCC(=O)N[C@@H](CCC(=O)NCCCC[C@H](NC(=O)[C@H](CC(=O)O)NC(=O)[C@H](CO)NC(=O)[C@@H](NC(=O)[C@H](Cc1ccccc1)NC(=O)[C@@H](NC(=O)CNC(=O)[C@H](CCC(N)=O)NC(=O)[C@H](C)NC(=O)[C@@H](Cc1c[nH]cn1)NC(C)=O)[C@@H](C)O)[C@@H](C)O)C(=O)N[C@@H](CO)C(=O)N[C@@H](CCCCN)C(=O)N[C@@H](Cc1ccc(O)cc1)C(=O)N[C@@H](CC(C)C)C(=O)N[C@@H](CC(=O)O)C(=O)N[C@@H](CCC(=O)O)C(=O)N[C@@H](CCCNC(=N)N)C(=O)N[C@@H](C)C(=O)N[C@@H](C)C(=O)N[C@@H](CCC(N)=O)C(=O)N[C@@H](CC(=O)O)C(=O)N[C@@H](Cc1ccccc1)C(=O)N[C@H](C(=O)N[C@@H](CCC(N)=O)C(=O)N[C@@H](Cc1c[nH]c2ccccc12)C(=O)N[C@@H](CC(C)C)C(=O)N[C@@H](CC(C)C)C(=O)N[C@@H](CCC(=O)O)C(=O)NCC(=O)NCC(=O)N1CCC[C@H]1C(=O)N[C@@H](CO)C(=O)N[C@@H](CO)C(=O)NCC(=O)N[C@@H](C)C(=O)N1CCC[C@H]1C(=O)N1CCC[C@H]1C(=O)N1CCC[C@H]1C(=O)N[C@@H](CO)C(N)=O)C(C)C)C(=O)O` [compound 13] were, in that order, 11.40, 11.40 and 11.70.
The matching figures for `CCCCCCCCCCCCCCCC(=O)N[C@@H](CCC(=O)NCCCC[C@H](NC(=O)[C@H](CC(=O)O)NC(=O)[C@H](CO)NC(=O)[C@@H](NC(=O)[C@H](Cc1ccccc1)NC(=O)[C@@H](NC(=O)CNC(=O)[C@H](CCC(N)=O)NC(=O)CNC(=O)[C@@H](Cc1ccc(O)cc1)NC(C)=O)[C@@H](C)O)[C@@H](C)O)C(=O)N[C@@H](CO)C(=O)N[C@@H](CCCCN)C(=O)N[C@@H](Cc1ccc(O)cc1)C(=O)N[C@@H](CC(C)C)C(=O)N[C@@H](CC(=O)O)C(=O)N[C@@H](CCC(=O)O)C(=O)N[C@@H](CCCNC(=N)N)C(=O)N[C@@H](C)C(=O)N[C@@H](C)C(=O)N[C@@H](CCC(N)=O)C(=O)N[C@@H](CC(=O)O)C(=O)N[C@@H](Cc1ccccc1)C(=O)N[C@H](C(=O)N[C@@H](CCC(N)=O)C(=O)N[C@@H](Cc1c[nH]c2ccccc12)C(=O)N[C@@H](CC(C)C)C(=O)N[C@@H](CC(C)C)C(=O)N[C@@H](CCC(=O)O)C(=O)NCC(=O)NCC(=O)N1CCC[C@H]1C(=O)N[C@@H](CO)C(=O)N[C@@H](CO)C(=O)NCC(=O)N[C@@H](C)C(=O)N1CCC[C@H]1C(=O)N1CCC[C@H]1C(=O)N1CCC[C@H]1C(=O)N[C@@H](CO)C(N)=O)C(C)C)C(=O)O` [compound 14] (Ac-[dY]GQGTFTSDK([γGlu-Palmitoyl])SKYLDERAAQDFVQWLLEGGPSSGAPPPS-NH2): 10.66, 11.30 and 11.30.
The matching figures for `CCCCCCCCCCCCCCCC(=O)N[C@@H](CCC(=O)NCCCC[C@H](NC(=O)[C@H](CC(=O)O)NC(=O)[C@H](CO)NC(=O)[C@@H](NC(=O)[C@H](Cc1ccccc1)NC(=O)[C@@H](NC(=O)CNC(=O)[C@H](CCC(N)=O)NC(=O)[C@H](C)NC(=O)[C@H](N)Cc1ccc(O)cc1)[C@@H](C)O)[C@@H](C)O)C(=O)N[C@@H](CO)C(=O)N[C@@H](CCCCN)C(=O)N[C@@H](Cc1ccc(O)cc1)C(=O)N[C@@H](CC(C)C)C(=O)N[C@@H](CC(=O)O)C(=O)N[C@@H](CCC(=O)O)C(=O)N[C@@H](CCCNC(=N)N)C(=O)N[C@@H](C)C(=O)N[C@@H](C)C(=O)N[C@@H](CCC(N)=O)C(=O)N[C@@H](CC(=O)O)C(=O)N[C@@H](Cc1ccccc1)C(=O)N[C@H](C(=O)N[C@@H](CCC(N)=O)C(=O)N[C@@H](Cc1c[nH]c2ccccc12)C(=O)N[C@@H](CC(C)C)C(=O)N[C@@H](CC(C)C)C(=O)N[C@@H](CCC(=O)O)C(=O)NCC(=O)NCC(=O)N1CCC[C@H]1C(=O)N[C@@H](CO)C(=O)N[C@@H](CO)C(=O)NCC(=O)N[C@@H](C)C(=O)N1CCC[C@H]1C(=O)N1CCC[C@H]1C(=O)N1CCC[C@H]1C(=O)N[C@@H](CO)C(N)=O)C(C)C)C(=O)O` [compound 15]: 11.40, 11.10 and 10.30.
Take `CCCCCCCCCCCCCCCC(=O)N[C@@H](CCC(=O)NCCCC[C@H](NC(=O)[C@H](CC(=O)O)NC(=O)[C@H](CO)NC(=O)[C@@H](NC(=O)[C@H](Cc1ccccc1)NC(=O)[C@@H](NC(=O)CNC(=O)[C@H](CCC(N)=O)NC(=O)[C@H](C)NC(=O)[C@H](N)Cc1c[nH]cn1)[C@@H](C)O)[C@@H](C)O)C(=O)N[C@@H](CO)C(=O)N[C@@H](CCCCN)C(=O)N[C@@H](Cc1ccc(O)cc1)C(=O)N[C@@H](CC(C)C)C(=O)N[C@@H](CC(=O)O)C(=O)N[C@@H](CCC(=O)O)C(=O)N[C@@H](CCCNC(=N)N)C(=O)N[C@@H](C)C(=O)N[C@@H](C)C(=O)N[C@@H](CCC(N)=O)C(=O)N[C@@H](CC(=O)O)C(=O)N[C@@H](Cc1ccccc1)C(=O)N[C@H](C(=O)N[C@@H](CCC(N)=O)C(=O)N[C@@H](Cc1c[nH]c2ccccc12)C(=O)N[C@@H](CC(C)C)C(=O)N[C@@H](CC(C)C)C(=O)N[C@@H](CCC(=O)O)C(=O)NCC(=O)NCC(=O)N1CCC[C@H]1C(=O)N[C@@H](CO)C(=O)N[C@@H](CO)C(=O)NCC(=O)N[C@@H](C)C(=O)N1CCC[C@H]1C(=O)N1CCC[C@H]1C(=O)N1CCC[C@H]1C(=O)N[C@@H](CO)C(N)=O)C(C)C)C(=O)O` [compound 16]: the values for the pEC50 at GLP-1 receptor, at GIP receptor and on glucagon receptor were 11.70, 11.00 and 11.00, respectively.
